According to patent US20240150396A1 (The Texas A&M University System, priority 2021, published 2024):
Values joined by “and” are separate entries in the source; they are usually repeats but may differ in a detail not shown here. Equal values may be shown once. Read-outs that look alike come from different tables or passages of the source.

Assays:
human cathepsin B = human cathepsin B (Homo sapiens (Human), UniProt P07858); assay: Human cathepsin B inhibition, Z-FR-AMC assay; type: biochemical; conditions: pH 5.5, 25° C., 10% DMSO; read-out: Ki* Human Cathepsin B
Experimental: Recombinant human cathepsins B and L were purchased from Millipore Sigma and used without further treatment. The solid proteins were dissolved into a solution of 50 mM sodium acetate (pH 5.5), 1 mM EDTA, 1 mM CHAPS, 10% (v/v) DMSO, and 5 mM DTT to final concentrations of […] in 20-mL aliquots, and stored at −80° C. until needed. These samples were then diluted into the same buffer to concentrations of −100 nM, and these dilutions were stored at 4° C. and used daily until depletion.
For assays of cathepsin L and B, inhibitors were evaluated in 0.25-mL reaction mixtures containing a buffer of sodium acetate (pH 5.5), 1 mM CHAPS, 1 mM Na2EDTA, and 5 mM DTT at 25° C. The fluorogenic substrate Cbz-Phe-Arg-7-amino-4-methyl-coumarin (Z-FR-AMC) was dissolved in 100% DMSO, as were all inhibitors, and aliquots of both substrates and inhibitors were added to reaction mixtures to final concentrations of DMSO of 10% (v/v). […] Formation of the fluorescent product AMC was monitored over 30-60-minute time courses for reaction mixtures in 96-well black microplates (Corning Costar®). Rates of peptidolysis of the dipeptide-AMC substrate(s) were measured on either a SpectraMax M5 (Molecular Devices) or a Synergy HTX (Biotek, Wisnooki, VT) microplate reader with λex=360 nm, λem=460 nm in ≥8-sec intervals. Control samples excluded substrate. The measured relative fluorescence units (RFUs) of generated AMC were converted to reaction rates of μM/s by use of a standard curve of known AMC concentrations obtained for both plate readers.

[1] = Host cell cytotoxicity in the T. cruzi infection model; type: cell-based, mouse; conditions: mouse; host cardiomyoblasts; read-out: C2C12 Cytotoxicity CC50
Experimental: The plates were incubated at 37° C. for 48 h, and the wells were fixed with 2% paraformaldehyde in PBS and stained with 5 μg mL-1 4,6-diamidino-2-phenylindole. After at least 30 min of incubation at room temperature in the dark, the plates were read in an automated microscope, ImageXpress Micro XL (Molecular Devices), and the images were analyzed by custom-built software to quantify and assess viability of the parasites, as well as the host cells independently. The compilation of data was used to calculate the antiparasitic activity (EC50) and host cytotoxicity (CC50).
T. cruzi infection was evaluated in C2C12 murine cardiomyoblast cells. […] The wells were fixed with 2% PFA in PBS, and stained by 5 μg/ml of DAPI. After >30 min of incubation in a dark environment, the plates were read on an ImageXpress MicroXL microscope (Molecular Devices). The images were analyzed to quantify parasites as well host cells.

[2] = system: T. b. brucei procyclic forms; assay: Growth of axenic cultures of T. b. brucei procyclic forms (PCFs); type: cell-based, Trypanosoma brucei brucei; conditions: Trypanosoma brucei, axenic culture; read-out: EC50 T. b. brucei PCF
cruzain = cruzain (Trypanosoma cruzi, UniProt P25779); assay: biochemical; conditions: for Ki: pH 7.5
Sequence of cruzain (P25779 123-467 limits assumed): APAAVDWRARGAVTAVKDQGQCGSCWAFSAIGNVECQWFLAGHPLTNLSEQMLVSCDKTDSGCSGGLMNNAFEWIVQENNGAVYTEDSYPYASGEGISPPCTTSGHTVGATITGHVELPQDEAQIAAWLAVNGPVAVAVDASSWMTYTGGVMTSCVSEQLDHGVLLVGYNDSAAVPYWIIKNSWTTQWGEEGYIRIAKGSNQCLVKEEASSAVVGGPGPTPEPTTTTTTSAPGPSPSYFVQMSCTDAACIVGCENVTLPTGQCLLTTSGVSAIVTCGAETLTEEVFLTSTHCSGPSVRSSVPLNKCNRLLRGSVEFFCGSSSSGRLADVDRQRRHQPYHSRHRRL
Summary of the method: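 Fluorogenic assay at 25 °C following AMC release (ex 360/em 460 nm), with typically 0.2 nM cruzain and 10% DMSO, at pH 7.5 or 5.5 buffer with 5 mM DTT.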

human cathepsin S = human cathepsin S (Homo sapiens (Human), UniProt P25774); assay: Human cathepsin S inhibition; type: biochemical; conditions: pH 5.5, 25° C., 10% DMSO
Sequence of human cathepsin S (P25774 115-331): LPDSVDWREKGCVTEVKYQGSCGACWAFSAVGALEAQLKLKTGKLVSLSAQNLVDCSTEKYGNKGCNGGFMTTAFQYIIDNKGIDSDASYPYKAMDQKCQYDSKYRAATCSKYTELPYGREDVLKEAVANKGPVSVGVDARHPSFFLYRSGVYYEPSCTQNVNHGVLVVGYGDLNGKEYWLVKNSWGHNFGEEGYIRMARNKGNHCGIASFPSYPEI
Experimental: Cruzain inhibitors were added at seven concentrations and one fixed concentration of Cbz-Phe-Arg-AMC, and time courses of AMC formation were analyzed as with cruzain.

human cathepsin L = human cathepsin L (Homo sapiens (Human), UniProt P07711); assay: Human cathepsin L inhibition, Z-FR-AMC assay; type: biochemical; conditions: pH 5.5, 25° C., 10% DMSO; read-out: Ki* Human Cathepsin L
Sequence of human cathepsin L (P07711 114-333): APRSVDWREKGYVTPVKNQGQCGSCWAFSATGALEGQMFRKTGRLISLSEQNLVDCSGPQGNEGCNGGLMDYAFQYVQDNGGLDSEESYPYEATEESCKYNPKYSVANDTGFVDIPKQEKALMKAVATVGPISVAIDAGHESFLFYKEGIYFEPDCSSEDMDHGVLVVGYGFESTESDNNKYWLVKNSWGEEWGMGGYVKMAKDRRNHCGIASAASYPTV
Summary of the method: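 Recombinant human enzymes were assayed at 25°C in sodium acetate pH 5.5 with 1 mM CHAPS, 1 mM EDTA, 5 mM DTT and 10% DMSO final, using the fluorogenic substrate Z-FR-AMC. AMC release (ex 360/em 460 nm) was followed over 30–60 min and converted to rates (μM/s) via an AMC standard curve.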

human dermal fibroblasts = assay: Human cell toxicity, resazurin viability; type: cell-based; conditions: human dermal fibroblasts; read-out: Human Cell Cytotoxicity CC50
Experimental: Primary human dermal fibroblast (HDF) cells were used to evaluate human cell toxicity of cruzain inhibitors. HDF cells were plated in a 384-well plate at 2400 cells per well (62,000 cells mL^−1). Inhibitors in 100% DMSO were added in duplicate to final concentrations of 0.001-0.1 mM and 1% DMSO (v/v) with 1% DMSO as a control sample, and cells were cultured at 37° C. for 48 h, followed by the addition of resazurin. Cell viability was then assessed by reading of fluorescence (excitation/emission: 544 nm/590 nm) after an additional 24 h of incubation.

[3] = Thiolation of inhibitors with glutathione, LCMS; type: physicochemical; conditions: 1 mM glutathione, 0.5 mM compound, Tris pH 8.0, 10% DMSO, room temperature
Experimental: Samples were analyzed by HPLC-MS (as described above) by injecting 0.01 mL aliquots onto a Luna […] C18(2) 100 Å, 4.6 mm, 50 mm column (Phenomenex) using the HPLC method described in the chemistry section at 0-6 h time points. […] Integration of the chromatographic peaks of the inhibitors and their GSH adducts at each time point was used to determine the rate of GSH adduct formation.

[4] = system: SARS-CoV-2 in A549/ACE2 cells; type: cell-based; conditions: read-out: Anti-CoV-2 EC50 A549/ACE2 Cells
[5] = system: esterase from porcine liver; assay: Hydrolysis of SMAI prodrugs by porcine esterase; type: in vitro ADME; conditions: for half-life of conversion to compound 36: porcine esterase, buffer pH 7.5, 37° C.
Experimental: Evaluation of SMAI Prodrugs. Esterase from porcine liver was obtained as an ammonium sulfate suspension (Sigma-Aldrich, E2884, 10 U/μL). Compounds 37-39 in 100% (v/v) DMSO solutions were diluted by 10-fold into cruzain assay buffer to make 1 mL-samples, each containing 2 mM compound. For the experimental sample, 4 μL of esterase suspension was added to the reaction mixtures (40 U/mL), which was immediately placed on a low-speed orbital shaker in a 37° C. incubator. In the meantime, a negative control (lacking esterase) and a blank control (buffer only) were included. Aliquots (140 μL) of the reaction mixtures were removed at 0, 15, 30, 60, 120, 180, and 300 min, and reactions were quenched by the addition of MeCN (260 μL). The resulting solution was vortexed, followed by centrifugation to precipitate the protein, and the resulting compounds in the supernatant were analyzed by HPLC-MS with detection at 270 nm.
Rates of de-acylation reactions of SMAI prodrugs 37-39 were obtained upon evaluation of the first-order loss of reagent as fitted to eq. 6, in which A0 and C are the initial and final fraction of unhydrolyzed compound, respectively, k is the pseudo-first order rate constant, from which the half-life was t1/2=ln 2/k.

[6] = system: T. b. brucei bloodstream forms; assay: Growth of axenic cultures of T. b. brucei bloodstream forms (BSFs)
Experimental: Selected cruzain inhibitors were evaluated in axenic cell cultures of T. b. brucei and T. cruzi. Procyclic trypomastigotes of T. b. brucei (ATCC PRA-381) were grown in the SDM-79 medium at 26° C., and bloodstream forms (ATCC PRA-383) were grown at 37° C. in the HMI-9 medium at 5% C02. […] Both forms of T. b. brucei and T. cruzi were grown in media containing 10% fetal bovine serum (FBS) and penicillin/streptomycin (50 U mL^−1). […] Control samples contained equal amounts of DMSO. T. b. brucei and T. cruzi (5 mL in flask cultures) were seeded at ˜3×10^6 cells and diluted daily, maintaining a mid-log growth phase for up to 120 h. […] After each cell dilution, fresh compound or an equal volume of DMSO (control samples) was supplemented into the cultures, while maintaining a constant concentration of each inhibitor. Cell counts were scored using a Z2 Coulter Counter.
In vitro Cell Assays. Bloodstream form T. b. brucei strain SM427 was grown in HM1-9 medium that included fetal bovine serum (10%) and antibiotics (100 U/mL penicillin-streptomycin, Gibco™). Inhibitors dissolved in 100% (v/v) DMSO stock solutions were added at final concentrations of 0.5-20 μM (final concentrations of DMSO were <1% (v/v)). T. b. brucei were seeded at ˜1×10^6 cells at 37° C., and diluted daily to maintain a log phase of growth for up to 96 h. […] After each dilution, the cell cultures were supplemented with inhibitor or DMSO (control) to keep concentrations constant. Cell density was determined and graphed as previously reported.^36 Trypanosomes were quantified using a Z2 Coulter Counter, and values of EC50 were determined after 3-4 days of treatment by the interpolation method of Huber and Koella.^37

[7] = system: T. cruzi (Ca-I/72) in C2C12 murine cardiomyoblasts; assay: T. cruzi-infected murine cardiomyoblasts (C2C12); type: cell-based, Trypanosoma cruzi
Summary of the method: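 C2C12 mouse cardiomyoblasts infected with T. cruzi Ca-I/72 (10^3 and 10^4 parasites) and exposed to 3-fold serial dilutions of inhibitor from a 10 μM maximum, 48 h at 37° C. After PFA fixation and DAPI staining, automated imaging quantified parasites and host cells, giving EC50 and host CC50.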

[8] = system: SARS-CoV-2 in Vero E6 cells; assay: Anti-CoV-2 activity in Vero E6 cells; type: cell-based
CYPs 3A4, 2D6 and 2C9 [9] = conditions: human, 4 h, 0.5 mM, pH 7.5
CYPs 3A4, 2D6 and 2C9 [10] = assay: Stability of acetal prodrugs to CYPs; conditions: CYP 3A4, 2D6, 2C9, NADPH-regenerating system, up to 4 h
[11] = Detection of aldehyde content using phenylhydrazine; type: physicochemical; conditions: 1 mM phenylhydrazine
Experimental: Detection of Aldehyde Content Using Phenylhydrazine. In a 96-well clear microplate, compounds 52 and 36 in DMSO solutions, or pure DMSO as a control, were diluted into the above NMR buffer without addition of DTT to make 250 μL-samples, each containing 0.2 mM of compounds and 10% DMSO (v/v). Upon addition of 1M phenylhydrazine (0.25 μL), the formation of phenylhydrazone in these wells were continuously monitored for 2 hours by measuring UV absorbance at the maximal wavelength of 282 nm.

[12] = system: T. cruzi (Ca-I/72) in C2C12 murine cardiomyoblasts; conditions: antichagasic activity, Ref. 55; cited from earlier work
[13] = system: T. b. brucei bloodstream forms; conditions: Ref. 25; read-out: EC50 in T. b. brucei BSFs; cited from earlier work
[14] = apparent tight-binding inhibition constant, 25° C., read-out: Ki*
[15] = read-out: EC50 T. b. brucei BSF, axenic culture
[16] = obtained >10 minutes following initiation of reaction by addition of enzyme, read-out: Ki* Cruzain
[17] = C2C12 murine cardiomyoblasts, read-out: EC50 T. cruzi-infected cardiomyoblasts

| Structure (SMILES) | Ki (cruzain; [14]) [µM] | EC50 [4] [µM] | half-life of conversion to compound 36 [5] [min] | EC50 [6, 15] [µM] | Ki (cruzain; [16]) [µM] | EC50 [8] [µM] | further results |
| --- | --- | --- | --- | --- | --- | --- | --- |
| O=C(N[C@@H](Cc1ccccc1)C(=O)N[C@H](/C=C/c1ncccn1)Cc1ccccc1)OCc1ccccc1 [Compound 7, Benzyl ((S)-1-Oxo-3-phenyl-1-(((S,E)-1-phenyl-4-(pyrimidin-2-yl)-but-3-en-2-yl)amino)propan-2-yl)carbamate] | 0.38 |  |  |  |  |  | Ki (human cathepsin B): 32 ± 3 µM; CC50 at 48 h [1]: > 10 µM; EC50 [2]: 5 to 15 µM; Ki (cruzain; Ki* Cruzain, obtained >10 minutes following initiation of reaction by addition of enzyme): 0.12 to 0.4 µM and 0.31 µM; Ki (cruzain; apparent initial inhibition constant, 25° C., read-out: Ki): 28 ± 1 µM; k4 (cruzain; conversion of EI* back to EI, from kobs replot or recovery after preincubation and dilution): 0.0018 ± 0.0003 s⁻¹; Ki (human cathepsin S): 0.37 ± 0.02 µM; Ki (human cathepsin L): 1.1 ± 0.1 µM; CC50 (human dermal fibroblasts): > 100 µM; Rate of Thiolation, k [3]: Negligible |
| CC(=O)OC1Oc2ccccc2C[C@@H]1NC(=O)[C@H](Cc1ccccc1)NC(=O)N1CCN(C)CC1 (stereo partly drawn) [Compound 37, (3S)-3-((S)-2-(4-methylpiperazine-1-carboxamido)-3-phenylpropanamido)chroman-2-yl acetate] | 1 | 0.31 | 48 | 3.7 | ~1 | 2.5 | degradation in buffer without esterase ([5]; over 3 h, pH 7.5): about 10%; EC50 [7, 17]: 13 ± 2 µM |
| CCC(=O)OC1Oc2ccccc2C[C@@H]1NC(=O)[C@H](Cc1ccccc1)NC(=O)N1CCN(C)CC1 (stereo partly shown) [Compound 38] |  | 0.62 | 24 | 3.1 ± 0.2 | > 5 | 2.5 |  |
| CC(C)C(=O)OC1Oc2ccccc2C[C@@H]1NC(=O)[C@H](Cc1ccccc1)NC(=O)N1CCN(C)CC1 (stereo partly shown) [Compound 39] |  | 0.31 | 16 | 4 ± 0.2 | > 5 | 4 | EC50 [7, 17]: 14 ± 6 µM |
| CCOC1Oc2ccccc2C[C@@H]1NC(=O)[C@H](Cc1ccccc1)NC(=O)N1CCN(C)CC1 (stereo partly drawn) [Compound 40, N-((2S)-1-(((3S)-2-ethoxychroman-3-yl)amino)-1-oxo-3-phenylpropan-2-yl)-4-methylpiperazine-1-carboxamide] |  |  |  | 12 ± 0.1 |  |  | EC50 ([6]; Trypanosoma brucei, read-out: EC50 T. b. brucei BSF, axenic culture): 11 to 14 µM; transformation to 36 by CYPs (CYPs 3A4, 2D6 and 2C9 [9]): no transformation to 36 was observed |
| CC(C)OC1Oc2ccccc2C[C@@H]1NC(=O)[C@H](Cc1ccccc1)NC(=O)N1CCN(C)CC1 (stereo partly shown) [Compound 41] | > 5 | 5 |  | 14 ± 0.9 | > 5 | > 20 | transformation to 36 by CYPs (CYPs 3A4, 2D6 and 2C9 [10]): no transformation to 36 was observed |
| CN1CCN(C(=O)N[C@@H](Cc2ccccc2)C(=O)N[C@H](C=O)CCc2ccccc2)CC1 [Compound 52, 4-Methyl-N—((S)-1-oxo-1-(((S)-1-oxo-4-phenylbutan-2-yl)amino)-3-phenylpropan-2-yl)piperazine-1-carboxamide] |  |  |  |  | 0.0005 ± 0.0002 |  | kobs of phenylhydrazone formation ([11]; 0.2 mM compound): (2.61±0.05)×10^−4 s^−1; free aldehyde by phenylhydrazine treatment ([11]; aqueous buffer, 2 hours): completely converted to phenylhydrazone; residence time (cruzain): 45 min |
| O=C(Cn1ccnc1[N+](=O)[O-])NCc1ccccc1 [benznidazole, reference compound] |  |  |  |  |  |  | LD50 [12]: 1.5 µM; EC50 ([7]; Trypanosoma cruzi, C2C12, read-out: EC50 T. cruzi-infected cardiomyoblasts): 4 ± 2 µM |
| N=C(N)c1ccc(/N=N/Nc2ccc(C(=N)N)cc2)cc1 [diminazene] |  |  |  |  |  |  | EC50 [13]: 0.99 µM |
